This passage reports IC50 results from BindingDB's records for PubMed 35598527 (Universidade Federal De Minas Gerais, 2022).

A short description of this experiment: Antagonist activity at pig cerebral cortex CCK2 […] by Packbard-Cobra counter analysis.

`CC(C)CNC1=C(Cl)C(=O)OC1OCc1ccccc1` (configuration not stated): the 50% inhibitory concentration (IC50) (as a rule, the concentration that gives 50% inhibition) was determined as 0.085 µM. This lies in the double-digit nanomolar range.

As to `C#CCOC1OC(=O)C(Cl)=C1N(CC(C)C)C1CCCCC1` (configuration not stated), the half-maximal inhibitory concentration (IC50) amounted to 0.08 µM.
